Literature values, collected in patent publication US20250303004A1, “RADIOPHARMACEUTICAL COMPOSITIONS FOR LOW TOXICITY ACTINIUM IN TARGETED RADIONUCLIDE THERAPY” (Curium US LLC, priority 2021, published 2025).

What was measured:
[1] = tested on: patient with advanced mCRPC; settings: cited from earlier work
patients = settings: cited from earlier work
[2] = tested on: kidneys and lesion of a mCRPC patient; settings: 8.1 MBq, cited from earlier work
[3] = subgroup of 11 patients with prior ^177Lu-PSMA treatment
[4] = subgroup with prior ^177Lu-PSMA radioligand therapy

Structure (SMILES): O=C(O)CC[C@H](NC(=O)N[C@@H](CCCCNC(=O)CCCCCCC(=O)NCCCC[C@@H](NC(=O)[C@@H](Cc1ccccc1)NC(=O)[C@@H](Cc1ccc(O)c(I)c1)NC(=O)CC[C@H](C(=O)O)N1CCN(CC(=O)O)CCN(CC(=O)O)CCN(CC(=O)O)CC1)C(=O)O)C(=O)O)C(=O)O.[225Ac+3] [^225Ac-PSMA-I&T, (3S,7S,26R,29R,32R,37R)-29-benzyl-32-(4-hydroxy-3-iodobenzyl)-5,13,20,28,31,34-hexaoxo-37-(4,7,10-tris(carboxymethyl)-1,4,7,10-tetraazacyclododecan-1-yl)-4,6,12,21,27,30,33-heptaazaheptatriacontane-1,3,7,26,37-pentacarboxylic acid; Actinium-225 (III)]
- main TAT-related side effect ([1]; already preexisting after 10 cycles of RLT): grade 2 xerostomia
- response ([1]; two cycles after failure of ^177Lu-PSMA-617 (10 cycles), FIG. 6): encouraging response
- hematological side effects ([1]; two cycles): No TAT-related grade 3/4 hematological side effects were noted
- acute toxicity during hospitalization (patients; 14 patients, 34 cycles, median 7.8 MBq): No acute toxicity was observed
- hematologic toxicity (patients; 14 patients, FIG. 13): mild
- patients with grade 1 nephrotoxicity (patients; 14 patients, FIG. 13): one
- biochemical responses compared with ^225Ac-PSMA-617 TAT (patients; first clinical data): highly comparable biochemical responses
- patients with grade 3 anemia after TAT (patients; of 14 patients, 2 with grade 2 anemia at baseline): 3 patients
- patients reporting no xerostomia at all (patients; of 14 patients): One
- patients with PSA decline of any amount (patients; of 14 patients): 11 patients
- patients with best PSA response (PSA decline ≥50%) (patients; of 14 patients): 7 patients
- patients with grade 3 leukopenia (patients; of 14 patients): 1 patients
- patients with newly diagnosed grade 1 or 2 xerostomia after TAT (patients; of 14 patients): 5 patients
- patients with no PSA decline at any time (patients; of 14 patients): Three
- patients with preexisting xerostomia after ^177Lu-PSMA showing no worsening after TAT (patients; of 14 patients): Eight
- patients with PSA decline of at least 50% (patients; [3]): 5 patients
- patients with any PSA decline (patients; [3]): 8 patients
- PSA decline ≥50% (patients; [4]): 45%
- any PSA decline (patients; [4]): 73%
- absorbed dose, left kidney ([2]; SPECT/CT at 24 h p. i.): 0.18 Sv(RBE=5)/MBq
- absorbed dose, right kidney ([2]; SPECT/CT at 24 h p. i.): 0.17 Sv(RBE=5)/MBq
- absorbed dose, small lesion in the right hip [2]: 0.26 Sv(RBE=5)/MBq
